Data: patent US20170066759A1, “AROMATIC 5-MEMBERED HETEROCYCLIC DERIVATIVE HAVING TRPV4-INHIBITING ACTIVITY” (Shionogi & Co., Ltd., priority 2012, published 2017)

Assays:
[1] = Test Example 9: Metabolism stability test; assay type: in vitro ADME; conditions: human liver microsomes 0.5 mg protein/mL, 30 minutes at 37° C., NADPH, compound concentration 0.5 μmol/L
Protocol: Metabolism Stability Test
Using a commercially available pooled human hepatic microsomes, a compound of the present invention was reacted for a constant time, a remaining rate was calculated by comparing a reacted sample and an unreacted sample, thereby, a degree of metabolism in liver was assessed.
A reaction was performed (oxidative reaction) at 37° C. for 0 minute or 30 minutes in the presence of 1 mmol/L NADPH in 0.2 mL of a buffer (50 mmol/L Tris-HCl pH 7.4, 150 mmol/L potassium chloride, 10 mmol/L magnesium chloride) containing 0.5 mg protein/mL of human liver microsomes. After the reaction, 50 μL of the reaction mixture was added to 100 μL of a methanol/acetonitrile=1/1 (v/v), mixed and centrifuged at 3000 rpm for 15 minutes. The compound of the present invention in the supernatant was quantified by LC/MS/MS, and a remaining amount of the compound of the present invention after the reaction was calculated, letting a compound amount at 0 minute reaction time to be 100%. Hydrolysis reaction was performed in the absence of NADPH and glucuronidation reaction was in the presence of 5 mmol/L UDP-glucuronic acid in place of NADPH, followed by similar operations.
(Results) Compound concentration: 0.5 μmol/L

[2] = Test Example 8: Solubility test; assay type: physicochemical; conditions: fassgf or other biorelevant, kinetic from dmso stock; 1% DMSO addition, artificial intestinal juice pH 6.8, 16 hours at 25° C.
Protocol: The solubility of a compound of the present invention was determined under 1% DMSO addition conditions. A 10 mmol/L solution of the compound was prepared with DMSO, and 6 μL of the solution of the compound of the present invention was added to 594 μL of an artificial intestinal juice (water and 118 mL of 0.2 mol/L NaOH reagent were added to 250 mL of 0.2 mol/L potassium dihydrogen phosphate reagent to reach 1000 mL) with a pH of 6.8. The mixture was left standing for 16 hours at 25° C., and the mixture was vacuum-filtered. The filtrate was two-fold diluted with methanol/water=1/1 (V/V), and the compound concentration in the filtrate was measured with HPLC or LC/MS/MS by the absolute calibration method.

[3] = molecular target: T1, human TRPV4 (hTRPV4/CHO cells) (Homo sapiens, UniProt Q9HBA0); assay: Test Example 4: TRPV4 inhibitory activity (Ki value), 4α-PDD stimulation, Fluo-3 calcium fluorescence (FDSS 3000); assay type: cell-based; conditions: Test Example 4, 4α-PDD stimulation, read-out: Test 4 Ki
T1 construct: expressed in transfected cells; host or cells: CHO-K1
T1 sequence (Q9HBA0 whole entry): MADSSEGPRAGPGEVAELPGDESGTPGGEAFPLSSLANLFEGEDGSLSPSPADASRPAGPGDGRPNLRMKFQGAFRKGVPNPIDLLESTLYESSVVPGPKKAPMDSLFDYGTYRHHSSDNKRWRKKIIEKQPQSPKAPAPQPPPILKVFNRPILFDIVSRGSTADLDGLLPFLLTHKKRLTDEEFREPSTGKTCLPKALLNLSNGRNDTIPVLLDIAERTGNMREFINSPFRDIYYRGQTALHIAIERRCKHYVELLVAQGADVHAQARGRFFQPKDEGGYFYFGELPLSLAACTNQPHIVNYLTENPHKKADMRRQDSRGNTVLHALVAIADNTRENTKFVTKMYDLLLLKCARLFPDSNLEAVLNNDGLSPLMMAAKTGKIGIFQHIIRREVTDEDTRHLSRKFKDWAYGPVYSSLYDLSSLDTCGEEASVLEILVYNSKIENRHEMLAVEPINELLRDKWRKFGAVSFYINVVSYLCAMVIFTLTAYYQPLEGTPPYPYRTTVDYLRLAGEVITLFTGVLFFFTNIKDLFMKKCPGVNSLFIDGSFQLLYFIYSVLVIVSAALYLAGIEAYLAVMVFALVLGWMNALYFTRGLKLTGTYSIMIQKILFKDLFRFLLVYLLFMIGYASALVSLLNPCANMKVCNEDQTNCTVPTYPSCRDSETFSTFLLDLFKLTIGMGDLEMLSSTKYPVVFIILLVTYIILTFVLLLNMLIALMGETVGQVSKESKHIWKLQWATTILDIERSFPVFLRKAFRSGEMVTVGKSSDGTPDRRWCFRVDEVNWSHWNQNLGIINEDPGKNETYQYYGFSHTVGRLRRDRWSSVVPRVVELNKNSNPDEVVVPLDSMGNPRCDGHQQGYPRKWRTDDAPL
Procedure, shortened: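 hTRPV4/CHO-K1 cells loaded with 5 μmol/L Fluo-3 in HBSS/HEPES pH 7.5 with probenecid; compound (10 μmol/L to 0.5 nmol/L final, 10 points) added before 4α-PDD, fluorescence read 8 min at Ex 480/Em 540 nm. Max−Min signal normalised to 10 μM Ruthenium Red (100%) and no compound (0%); IC50 converted to Ki using 4α-PDD EC50.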

Row | Structure (SMILES) | Metabolism stability: remaining amount of the compound after the reaction [1] [%] | solubility at 16 h [2] [µM] | Ki [3] [nM]
1 | Cc1nc(C)c(-c2csc(NC(=O)C3CCC(F)(F)C3)n2)s1 (stereo not drawn) [Compound I-18] | 86.4 | > 50 | < 100
2 | Cc1nc(C)c(-c2csc(NC(=O)Cc3ccc(S(C)(=O)=O)cc3)n2)s1 [Compound I-17] | 92.2 | > 50 | 100 to 1000
